According to patent US7718668B2, “Salts of 6-heterocycle substituted hexahydrophenanthridine derivatives” (Nycomed GmbH, priority 2005, dated 2010):
Structures can show the parent of a compound that is named as a salt.

CCOc1cc2c(cc1OC)C(c1ccc(-n3cccn3)nc1)=N[C@@H]1CC[C@@H](O)C[C@H]21 (as salt: fumarate) [compound 3, (2R,4aR,10bR)-9-Ethoxy-8-methoxy-6-(6-pyrazol-1-yl-pyridin-3-yl)-1,2,3,4,4a, 10b-hexahydro-phenanthridin-2-ol]
melting point: 170 °C

CCOc1cc2c(cc1OC)C(c1ccc(=O)n(C)c1)=N[C@@H]1CC[C@@H](O)C[C@H]21 (as salt: fumarate) [compound 9, 5-((2R,4aR,10bR)-9-Ethoxy-2-hydroxy-8-methoxy-1,2,3,4,4a, 10b-hexahydro-phenanthridin-6-yl)-1-methyl-1H-pyridin-2-one]
melting point: 156 °C

CCOc1cc2c(cc1OC)C(c1ccc(OC)nc1)=N[C@@H]1CC[C@@H](O)C[C@H]21 (as salt: fumarate) [compound 10, (2R,4aR,10bR)-9-Ethoxy-8-methoxy-6-(6-methoxy-pyridin-3-yl)-1,2,3,4,4a, 10b-hexahydro-phenanthridin-2-ol]
melting point: 173 °C

CCOc1cc2c(cc1OC)C(c1cnc(N(C)C)nc1OC)=N[C@@H]1CC[C@@H](O)C[C@H]21 (as salt: fumarate) [compound 11, (2R,4aR,10bR)-6-(2-Dimethylamino-4-methoxy-pyrimidin-5-yl)-9-ethoxy-8-methoxy-1,2,3,4,4a, 10b-hexahydro-phenanthridin-2-ol]
melting point: 123 °C

CCOc1cc2c(cc1OC)C(c1cnc(OC)cc1OC)=N[C@@H]1CC[C@@H](O)C[C@H]21 (as salt: fumarate) [compound 12, (2R,4aR,10bR)-6-(4,6-Dimethoxy-pyridin-3-yl)-9-ethoxy-8-methoxy-1,2,3,4,4a, 10b-hexahydro-phenanthridin-2-ol]
melting point: 194 °C

CCOc1cc2c(cc1OC)C(c1cnc(N(C)C)nc1)=N[C@@H]1CC[C@@H](O)C[C@H]21 (as salt: fumarate) [compound 13, (2R,4aR,10bR)-6-(2-Dimethylamino-pyrimidin-5-yl)-9-ethoxy-8-methoxy-1,2,3,4,4a, 10b-hexahydro-phenanthridin-2-ol]
melting point: 210 °C

CCOc1cc2c(cc1OC)C(c1ccc(OC)nc1OC)=N[C@@H]1CC[C@@H](O)C[C@H]21 (as salt: hydrobromid) [compound 8, (2R,4aR,10bR)-6-(2,6-Dimethoxy-pyridin-3-yl)-9-ethoxy-8-methoxy-1,2,3,4,4a, 10b-hexahydro-phenanthridin-2-ol]
melting point: 163 °C

CCOc1cc2c(cc1OC)C(c1ccc(OC)nc1OC)=N[C@@H]1CC[C@@H](O)C[C@H]21 (as salt: hydrochloride) [compound 8, (2R,4aR,10bR)-6-(2,6-Dimethoxy-pyridin-3-yl)-9-ethoxy-8-methoxy-1,2,3,4,4a, 10b-hexahydro-phenanthridin-2-ol]
melting point: 164 °C

CCOc1cc2c(cc1OC)C(c1ccc(OC)nc1OC)=N[C@@H]1CC[C@@H](O)C[C@H]21 (as salt: mesylate) [compound 8, (2R,4aR,10bR)-6-(2,6-Dimethoxy-pyridin-3-yl)-9-ethoxy-8-methoxy-1,2,3,4,4a, 10b-hexahydro-phenanthridin-2-ol]
melting point: 193 °C

CCOc1cc2c(cc1OC)C(c1ccc(=O)n(C)c1)=N[C@@H]1CC[C@@H](O)C[C@H]21 (as salt: tartrate) [compound 9, 5-((2R,4aR,10bR)-9-Ethoxy-2-hydroxy-8-methoxy-1,2,3,4,4a, 10b-hexahydro-phenanthridin-6-yl)-1-methyl-1H-pyridin-2-one]
melting point: 205 °C

CCOc1cc2c(cc1OC)C(c1cnc(N(C)C)nc1OC)=N[C@@H]1CC[C@@H](O)C[C@H]21 (as salt: tartrate) [compound 11, (2R,4aR,10bR)-6-(2-Dimethylamino-4-methoxy-pyrimidin-5-yl)-9-ethoxy-8-methoxy-1,2,3,4,4a, 10b-hexahydro-phenanthridin-2-ol]
melting point: 249 °C

CCOc1cc2c(cc1OC)C(c1cnc(N(C)C)nc1)=N[C@@H]1CC[C@@H](O)C[C@H]21 (as salt: tartrate) [compound 13, (2R,4aR,10bR)-6-(2-Dimethylamino-pyrimidin-5-yl)-9-ethoxy-8-methoxy-1,2,3,4,4a, 10b-hexahydro-phenanthridin-2-ol]
melting point: 206 °C

CCOc1cc2c(cc1OC)C(c1ccc(OC)nc1OC)=N[C@@H]1CC[C@@H](O)C[C@H]21 (as salt: tosylate) [compound 8, (2R,4aR,10bR)-6-(2,6-Dimethoxy-pyridin-3-yl)-9-ethoxy-8-methoxy-1,2,3,4,4a, 10b-hexahydro-phenanthridin-2-ol]
melting point: 218 °C

CCOc1cc2c(cc1OC)C(c1cnc(OC)nc1)=N[C@@H]1CC[C@@H](O)C[C@H]21 [compound 4, (2R,4aR,10bR)-9-Ethoxy-8-methoxy-6-(2-methoxy-pyrimidin-5-yl)-1,2,3,4,4a, 10b-hexahydro-phenanthridin-2-ol]
melting point: 124 °C

CCOc1cc2c(cc1OC)C(c1ccc(=O)n(C)c1)=N[C@@H]1CC[C@@H](O)C[C@H]21 [compound 9, 5-((2R,4aR,10bR)-9-Ethoxy-2-hydroxy-8-methoxy-1,2,3,4,4a, 10b-hexahydro-phenanthridin-6-yl)-1-methyl-1H-pyridin-2-one]
melting point: 147 °C

CCOc1cc2c(cc1OC)C(c1cnc(N(C)C)nc1OC)=N[C@@H]1CC[C@@H](O)C[C@H]21 [compound 11, (2R,4aR,10bR)-6-(2-Dimethylamino-4-methoxy-pyrimidin-5-yl)-9-ethoxy-8-methoxy-1,2,3,4,4a, 10b-hexahydro-phenanthridin-2-ol]
melting point: 124 °C

CCOc1cc2c(cc1OC)C(c1cnc(N(C)C)nc1)=N[C@@H]1CC[C@@H](O)C[C@H]21 [compound 13, (2R,4aR,10bR)-6-(2-Dimethylamino-pyrimidin-5-yl)-9-ethoxy-8-methoxy-1,2,3,4,4a, 10b-hexahydro-phenanthridin-2-ol]
melting point: 112 °C
